Data from paper PMC9774241, “Associating Biological Activity and Predicted Structure of Antimicrobial Peptides from Amphibians and Insects” (Antibiotics, 2022).
In brackets after ≈: the same amount, converted by molar mass. Residues, ends and D or L forms follow the SMILES beside them.

Legend:
Format in all cases: cell-based
Settings in all cases: broth microdilution in MHB, peptide 128 down to 0.5 µg/mL, 20–24 h at 37 °C, no visible growth; range of three independent experiments
[1] = system: Salmonella enterica serovar Enteritidis (human clinical isolate)
Method: (§1) Bacteria were grown overnight at 37 °C in Mueller-Hinton Broth (MHB; Sigma-Aldrich, St. Louis. MO, USA) in a shaking incubator and aliquoted into cryovials with a 50% glycerol solution in a 1:1 ratio. No additives were added to the MHB during the growth of bacterial isolates. Glycerol stocks were stored at −80 °C.
(§2) The antimicrobial activity of the putative AMPs was determined by a broth microdilution assay as described by the Clinical and Laboratory Standards Institute, with the published adaptations for testing of cationic peptides. Escherichia coli 25922 and Staphylococcus aureus 29213 isolates were purchased from the American Type Culture Collection (ATCC; Manassas, VA, USA). A human clinical isolate of Salmonella enterica serovar Enteritidis was provided by the BC Centre for Disease Control. Bacteria from stocks stored at −80 °C were streaked onto nonselective Columbia blood agar with 5% sheep blood (Oxoid) and incubated overnight at 37 °C. Next, 2–4 colonies were streaked onto a new agar plate to ensure uniform health of colonies used in the broth microdilution assay. Isolated colonies were suspended in MHB and the optical density was measured with a spectrophotometer to create an initial inoculum concentration of approximately 1 × 10^8 cfu/mL. The inoculum was diluted 1:250 to a final concentration of 2–8 × 10^5 cfu/mL, which was confirmed by performing a Total Viability Count (TVC). The TVC consisted of plating a 1:1000 dilution of the final inoculum on nonselective media and was also used to confirm the health and purity of the inoculum in each trial.
(§3) Lyophilized 80 µg peptide aliquots synthesized by GenScript (Piscataway, NJ, USA) were resuspended to 1.28 mg/mL with UltraPure water (Thermo Fisher Scientific, Waltham, MA, USA) and serially diluted in polypropylene 96-well microtiter plates (Greiner Bio-One #650261, Kremsmünster, Austria) from 128 down to 0.5 µg/mL. Two columns per plate were reserved for growth and sterility controls. Inoculum was added to the wells containing the peptide and the growth control. Plates were incubated for 20–24 h at 37 °C. The minimum inhibitory concentration (MIC) was determined as the lowest peptide concentration where there was no visible bacterial growth.

[2] = system: Staphylococcus aureus ATCC 29213
Method: as §1, §2, §3

[3] = system: Escherichia coli ATCC 25922
Method: as §1, §2, §3

| SMILES | MIC, Salmonella Enteritidis [1] [µg/mL] | MIC, S. aureus ATCC 29213 [2] [µg/mL] | MIC, E. coli ATCC 25922 [3] [µg/mL] |
| --- | --- | --- | --- |
| CC[C@H](C)[C@H](NC(=O)[C@H](CCCCN)NC(=O)[C@H](CS)NC(=O)[C@H](Cc1ccccc1)NC(=O)[C@H](CCCCN)NC(=O)[C@H](CCCNC(=N)N)NC(=O)[C@H](CO)NC(=O)[C@H](Cc1ccc(O)cc1)NC(=O)CNC(=O)[C@H](CS)NC(=O)[C@@H]1CCCN1C(=O)[C@H](C)NC(=O)[C@@H](NC(=O)[C@H](C)NC(=O)[C@H](Cc1ccccc1)NC(=O)[C@H](Cc1ccccc1)NC(=O)[C@H](Cc1ccccc1)NC(=O)[C@H](CCCNC(=N)N)NC(=O)[C@@H](N)CCCNC(=N)N)[C@@H](C)O)C(=O)N[C@H](C(=O)N[C@@H](CCCNC(=N)N)C(=O)N[C@@H](CCCNC(=N)N)C(=O)N[C@@H](CCCCN)C(=O)N[C@@H](CCCNC(=N)N)C(=O)O)[C@@H](C)O [CaCa4] (H-RRFFFATAPCGYSRKFCKITRRKR-OH) | 32 to 64 | > 128 | 16 to 32 |
| CC[C@H](C)[C@H](NC(=O)CNC(=O)[C@H](CO)NC(=O)[C@H](CC(C)C)NC(=O)[C@H](CC(C)C)NC(=O)CN)C(=O)N[C@@H](CC(C)C)C(=O)NCC(=O)N[C@@H](C)C(=O)NCC(=O)N[C@@H](CCCCN)C(=O)N[C@@H](CCCCN)C(=O)N[C@H](C(=O)N[C@H](C(=O)N[C@@H](CS)C(=O)NCC(=O)N[C@@H](Cc1ccccc1)C(=O)N[C@@H](CO)C(=O)NCC(=O)N[C@@H](CC(C)C)C(=O)N[C@@H](CS)C(=O)O)C(C)C)[C@@H](C)CC [OdMa1] (H-GLLSGILGAGKKIVCGFSGLC-OH; N-terminus and C-terminus assumed) | 128 (≈ 64.2 µM) | 64 (≈ 32.1 µM) | 8 to 16 |
| CC[C@H](C)[C@H](NC(=O)[C@H](CCCCN)NC(=O)[C@H](CCCCN)NC(=O)CNC(=O)[C@H](C)NC(=O)CNC(=O)[C@H](CC(C)C)NC(=O)[C@H](CC(C)C)NC(=O)CNC(=O)[C@H](CO)NC(=O)[C@H](CC(C)C)NC(=O)[C@H](CC(C)C)NC(=O)CN)C(=O)N[C@H](C(=O)N[C@@H](CS)C(=O)NCC(=O)N[C@@H](CC(C)C)C(=O)N[C@@H](CO)C(=O)NCC(=O)N[C@@H](CCSC)C(=O)N[C@@H](CS)C(=O)O)C(C)C [OdMa3] (H-GLLSGLLGAGKKIVCGLSGMC-OH; N-terminus and C-terminus assumed) | 64 (≈ 32.4 µM) | 32 (≈ 16.2 µM) | 8 to 16 |
| CC[C@H](C)[C@H](NC(=O)CN)C(=O)N[C@@H](CC(C)C)C(=O)N[C@@H](CO)C(=O)NCC(=O)N[C@@H](CC(C)C)C(=O)N[C@@H](CC(C)C)C(=O)NCC(=O)N[C@@H](C)C(=O)NCC(=O)N[C@@H](CCCCN)C(=O)N[C@@H](CCCCN)C(=O)N[C@H](C(=O)N[C@H](C(=O)N[C@@H](CS)C(=O)NCC(=O)N[C@@H](CC(C)C)C(=O)N[C@@H](CO)C(=O)NCC(=O)N[C@@H](CC(C)C)C(=O)N[C@@H](CS)C(=O)O)C(C)C)[C@@H](C)CC [OdMa5] (H-GILSGLLGAGKKIVCGLSGLC-OH; N-terminus and C-terminus assumed) | 64 to 128 | 8 to 16 | 8 to 16 |
| CC[C@H](C)[C@H](NC(=O)[C@H](CCCCN)NC(=O)[C@H](CCCCN)NC(=O)CNC(=O)[C@@H](NC(=O)CNC(=O)[C@H](CC(C)C)NC(=O)[C@@H](NC(=O)CNC(=O)[C@H](CO)NC(=O)[C@H](CC(C)C)NC(=O)[C@H](CC(C)C)NC(=O)CN)C(C)C)C(C)C)C(=O)N[C@H](C(=O)N[C@@H](CS)C(=O)NCC(=O)N[C@@H](CC(C)C)C(=O)N[C@@H](CO)C(=O)NCC(=O)N[C@@H](CC(C)C)C(=O)N[C@@H](CS)C(=O)O)C(C)C [OdMa6] (H-GLLSGVLGVGKKIVCGLSGLC-OH; N-terminus and C-terminus assumed) | 128 (≈ 64.9 µM) | 16 to 32 | 8 to 16 |
| CC(C)C[C@H](NC(=O)CNC(=O)[C@H](CO)NC(=O)[C@H](CC(C)C)NC(=O)CNC(=O)[C@H](CS)NC(=O)[C@H](CC(C)C)NC(=O)[C@@H](NC(=O)[C@H](CCCCN)NC(=O)[C@H](CCCCN)NC(=O)CNC(=O)[C@@H](NC(=O)CNC(=O)[C@H](CC(C)C)NC(=O)[C@@H](NC(=O)CNC(=O)[C@H](CO)NC(=O)[C@H](CC(C)C)NC(=O)[C@H](CC(C)C)NC(=O)CN)C(C)C)C(C)C)C(C)C)C(=O)N[C@@H](CS)C(=O)O [OdMa7] (H-GLLSGVLGVGKKVLCGLSGLC-OH; N-terminus and C-terminus assumed) | 128 (≈ 64.9 µM) | 16 to 32 | 8 to 16 |
| CC[C@H](C)[C@H](NC(=O)CNC(=O)[C@H](CO)NC(=O)[C@@H](NC(=O)[C@H](CC(C)C)NC(=O)CN)[C@@H](C)CC)C(=O)N[C@@H](CC(C)C)C(=O)NCC(=O)N[C@@H](C)C(=O)NCC(=O)N[C@@H](CCCCN)C(=O)N[C@@H](CCCCN)C(=O)N[C@H](C(=O)N[C@@H](CC(C)C)C(=O)N[C@@H](CS)C(=O)NCC(=O)N[C@@H](CC(C)C)C(=O)N[C@@H](CO)C(=O)NCC(=O)N[C@@H](CC(C)C)C(=O)N[C@@H](CS)C(=O)O)C(C)C [OdMa10] (H-GLISGILGAGKKVLCGLSGLC-OH; N-terminus and C-terminus assumed) | > 128 | 64 to 128 | 16 to 32 |
| CC[C@H](C)[C@H](NC(=O)[C@H](CCCCN)NC(=O)[C@H](CS)NC(=O)[C@H](CCCCN)NC(=O)[C@H](CC(C)C)NC(=O)[C@H](CC(N)=O)NC(=O)[C@H](Cc1ccc(O)cc1)NC(=O)[C@H](CC(C)C)NC(=O)[C@H](CC(C)C)NC(=O)[C@@H](NC(=O)[C@@H](NC(=O)[C@H](C)NC(=O)[C@@H](NC(=O)[C@H](CC(N)=O)NC(=O)[C@H](CCCCN)NC(=O)[C@H](C)NC(=O)[C@@H](NC(=O)[C@H](CC(N)=O)NC(=O)[C@H](CCCCN)NC(=O)[C@H](C)NC(=O)[C@@H](NC(=O)[C@H](CC(=O)O)NC(=O)[C@H](CCSC)NC(=O)[C@H](Cc1ccccc1)NC(=O)CN)[C@@H](C)O)C(C)C)C(C)C)C(C)C)[C@@H](C)O)C(=O)N[C@H](C(=O)N[C@@H](CCCCN)C(=O)N[C@@H](C)C(=O)N[C@@H](CS)C(=O)O)[C@@H](C)O [OdMa12] (H-GFMDTAKNVAKNVAVTLLYNLKCKITKAC-OH; N-terminus and C-terminus assumed) | 64 (≈ 20.3 µM) | 64 to 128 | 4 (≈ 1.27 µM) |
| CC[C@H](C)[C@H](NC(=O)CN)C(=O)N[C@@H](CC(C)C)C(=O)N[C@@H](CO)C(=O)NCC(=O)N[C@@H](CC(C)C)C(=O)N[C@@H](CC(C)C)C(=O)NCC(=O)N[C@@H](C)C(=O)NCC(=O)N[C@@H](CCCCN)C(=O)N[C@@H](CCCCN)C(=O)N[C@@H](CC(C)C)C(=O)N[C@@H](C)C(=O)N[C@@H](CS)C(=O)NCC(=O)N[C@@H](CC(C)C)C(=O)N[C@H](C(=O)NCC(=O)N[C@@H](CC(C)C)C(=O)N[C@@H](CS)C(=O)O)[C@@H](C)CC [OdTo1] (H-GILSGLLGAGKKLACGLIGLC-OH; N-terminus and C-terminus assumed) | 32 to 64 | 8 to 16 | 8 (≈ 4.09 µM) |
| CC[C@H](C)[C@H](NC(=O)CN)C(=O)N[C@@H](Cc1ccccc1)C(=O)NCC(=O)NCC(=O)N[C@@H](Cc1c[nH]cn1)C(=O)N[C@@H](CC(C)C)C(=O)N[C@@H](CCCCN)C(=O)N[C@H](C(=O)NCC(=O)N[C@@H](CCCCN)C(=O)N[C@@H](CCCCN)C(=O)N[C@H](C(=O)N[C@@H](C)C(=O)N[C@@H](CS)C(=O)NCC(=O)N[C@@H](CC(C)C)C(=O)N[C@@H](CO)C(=O)NCC(=O)N[C@@H](CC(C)C)C(=O)N[C@@H](CS)C(=O)O)[C@@H](C)CC)C(C)C [OdTo2] (H-GIFGGHLKVGKKIACGLSGLC-OH; N-terminus and C-terminus assumed) | > 128 | > 128 | 32 (≈ 15.5 µM) |
